# Laboratory results: PubChem BioAssay AID652164 (Sanford-Burnham Center for Chemical Genomics, 2013)
# Calls of active or inactive are those of the source.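 Rule for the calls: active = IC50 at or below 20 µM; inactive = the rest.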
# Target: Fatty acid synthase (Homo sapiens) (UniProt P49327)
# Assay: inhibition of human FAS-TE enzyme activity – biochemical, endpoint fluorescence intensity, powder samples, SAR follow-up (AID 652164)
# Details: recombinant FAS-TE, OMFH substrate fluorescence
# Fatty acid synthase (Homo sapiens), sequence (P49327 whole entry, looked up): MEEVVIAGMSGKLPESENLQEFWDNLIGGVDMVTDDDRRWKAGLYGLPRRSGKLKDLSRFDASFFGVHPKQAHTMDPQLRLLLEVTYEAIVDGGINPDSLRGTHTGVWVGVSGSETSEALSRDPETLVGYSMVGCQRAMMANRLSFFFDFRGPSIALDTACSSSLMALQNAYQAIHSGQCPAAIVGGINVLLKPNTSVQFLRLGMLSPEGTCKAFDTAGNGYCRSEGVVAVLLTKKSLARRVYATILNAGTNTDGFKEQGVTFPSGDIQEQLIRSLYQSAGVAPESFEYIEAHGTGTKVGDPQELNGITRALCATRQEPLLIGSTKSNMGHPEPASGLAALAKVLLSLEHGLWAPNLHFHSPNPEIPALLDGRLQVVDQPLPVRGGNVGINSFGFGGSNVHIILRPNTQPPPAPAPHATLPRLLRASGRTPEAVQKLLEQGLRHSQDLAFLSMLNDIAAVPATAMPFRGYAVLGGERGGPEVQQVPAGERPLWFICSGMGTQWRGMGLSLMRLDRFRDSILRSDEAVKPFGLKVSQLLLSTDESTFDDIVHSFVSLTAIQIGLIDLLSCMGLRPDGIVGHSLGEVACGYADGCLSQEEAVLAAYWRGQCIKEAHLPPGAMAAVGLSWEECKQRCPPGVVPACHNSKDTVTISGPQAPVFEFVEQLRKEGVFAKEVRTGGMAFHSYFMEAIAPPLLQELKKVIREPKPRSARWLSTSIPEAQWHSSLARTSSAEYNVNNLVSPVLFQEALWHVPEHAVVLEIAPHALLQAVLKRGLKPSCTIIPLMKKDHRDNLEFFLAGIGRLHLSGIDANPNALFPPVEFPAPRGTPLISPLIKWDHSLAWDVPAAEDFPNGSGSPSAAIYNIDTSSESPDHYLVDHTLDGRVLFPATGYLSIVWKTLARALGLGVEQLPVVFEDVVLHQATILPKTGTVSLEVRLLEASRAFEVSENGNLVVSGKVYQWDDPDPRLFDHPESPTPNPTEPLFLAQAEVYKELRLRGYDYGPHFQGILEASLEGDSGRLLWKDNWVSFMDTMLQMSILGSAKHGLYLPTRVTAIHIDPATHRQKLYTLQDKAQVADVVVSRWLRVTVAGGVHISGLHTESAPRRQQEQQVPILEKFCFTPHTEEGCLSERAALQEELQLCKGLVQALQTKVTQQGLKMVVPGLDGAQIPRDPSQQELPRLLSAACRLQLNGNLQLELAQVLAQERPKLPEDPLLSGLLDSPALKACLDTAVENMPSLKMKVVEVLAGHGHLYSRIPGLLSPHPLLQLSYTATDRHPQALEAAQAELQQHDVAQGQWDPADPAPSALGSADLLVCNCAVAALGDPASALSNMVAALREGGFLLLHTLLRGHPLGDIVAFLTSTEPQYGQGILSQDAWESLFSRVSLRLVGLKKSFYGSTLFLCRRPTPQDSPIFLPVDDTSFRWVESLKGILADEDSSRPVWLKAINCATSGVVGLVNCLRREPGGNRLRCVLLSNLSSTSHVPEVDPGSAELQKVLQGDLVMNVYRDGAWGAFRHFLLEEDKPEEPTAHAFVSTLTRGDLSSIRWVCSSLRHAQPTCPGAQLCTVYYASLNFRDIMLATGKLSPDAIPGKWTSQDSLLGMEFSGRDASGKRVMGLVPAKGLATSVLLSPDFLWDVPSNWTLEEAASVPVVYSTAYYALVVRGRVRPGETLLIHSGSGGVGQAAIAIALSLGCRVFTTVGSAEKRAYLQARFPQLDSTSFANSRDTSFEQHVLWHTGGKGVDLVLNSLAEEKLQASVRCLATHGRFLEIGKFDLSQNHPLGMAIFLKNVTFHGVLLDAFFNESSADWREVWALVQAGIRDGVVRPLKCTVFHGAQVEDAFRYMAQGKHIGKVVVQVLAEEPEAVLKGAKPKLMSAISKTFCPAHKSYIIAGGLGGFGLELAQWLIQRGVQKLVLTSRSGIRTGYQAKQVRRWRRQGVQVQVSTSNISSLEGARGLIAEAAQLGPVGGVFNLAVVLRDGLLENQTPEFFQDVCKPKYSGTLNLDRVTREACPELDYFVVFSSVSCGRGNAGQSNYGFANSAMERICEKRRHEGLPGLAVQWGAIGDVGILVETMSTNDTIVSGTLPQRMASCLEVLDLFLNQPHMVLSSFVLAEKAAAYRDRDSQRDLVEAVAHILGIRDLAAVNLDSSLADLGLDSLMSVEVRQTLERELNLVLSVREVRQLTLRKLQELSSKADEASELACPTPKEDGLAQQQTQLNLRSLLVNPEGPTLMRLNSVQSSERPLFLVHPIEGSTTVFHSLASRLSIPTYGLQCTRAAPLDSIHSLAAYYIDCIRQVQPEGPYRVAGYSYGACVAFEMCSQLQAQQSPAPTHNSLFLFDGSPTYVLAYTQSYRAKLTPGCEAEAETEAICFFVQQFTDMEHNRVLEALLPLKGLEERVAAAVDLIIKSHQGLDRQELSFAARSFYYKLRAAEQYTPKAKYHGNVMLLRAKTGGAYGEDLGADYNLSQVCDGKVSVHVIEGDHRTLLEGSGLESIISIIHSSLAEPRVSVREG
row,IC50,Compound
1,inactive,CC(C)(C)OC(=O)Nc1nc(-c2ccc(S(=O)(=O)N3CCOCC3)cc2)cs1
2,658 nM,CC1CCN(S(=O)(=O)c2ccc(-c3csc(NC(=O)C(C)C)n3)cc2)CC1
3,552 nM,CCCCC(=O)Nc1nc(-c2ccc(S(=O)(=O)N3CCOCC3)cc2)cs1
4,300 nM,CCC(C)C(=O)Nc1nc(-c2ccc(S(=O)(=O)N(CC)CC)cc2)cs1 (centres undefined)
5,713 nM,CCCCC(=O)Nc1nc(-c2ccc(S(=O)(=O)N3CCSCC3)cc2)cs1
6,575 nM,CC(C)C(=O)Nc1nc(-c2ccc(S(=O)(=O)N(C)C)cc2)cs1
7,172 nM,CCCCC(=O)Nc1nc(-c2ccc(S(=O)(=O)N(CC)CC)cc2)cs1
8,2930 nM,CCN(CC)S(=O)(=O)c1ccc(-c2csc(NC(=O)C3CCCCC3)n2)cc1
9,4250 nM,CCC(=O)Nc1nc(-c2ccc(S(=O)(=O)N(CC)CC)cc2)cs1
10,558 nM,O=C(Nc1nc(-c2ccc(S(=O)(=O)N3CCCC3)cc2)cs1)C1CC1
11,501 nM,CCCCC(=O)Nc1nc(-c2ccc(S(=O)(=O)N3CCC(C)CC3)cc2)cs1
12,281 nM,CCN(CC)S(=O)(=O)c1ccc(-c2csc(NC(=O)C(C)C)n2)cc1
13,334 nM,CCC(CC)C(=O)Nc1nc(-c2ccc(S(=O)(=O)N3CCOCC3)cc2)cs1
14,4520 nM,CCC(=O)Nc1nc(-c2ccc(S(=O)(=O)N3CCOCC3)cc2)cs1
15,277 nM,CC(C)C(=O)Nc1nc(-c2ccc(S(=O)(=O)N3CCCC3)cc2)cs1
16,729 nM,O=C(Nc1nc(-c2ccc(S(=O)(=O)N3CCCC3)cc2)cs1)C1CCCC1
17,11600 nM,CC(C)CC(=O)Nc1nc(-c2ccc(S(=O)(=O)N3CCOCC3)cc2)cs1
18,201 nM,CCCCC(=O)Nc1nc(-c2ccc(S(=O)(=O)N3CCCC3)cc2)cs1
19,311 nM,CCC(C)C(=O)Nc1nc(-c2ccc(S(=O)(=O)N3CCOCC3)cc2)cs1 (centres undefined)
20,648 nM,CCC(=O)Nc1nc(-c2ccc(S(=O)(=O)N3CCCC3)cc2)cs1
21,3590 nM,O=C(Nc1nc(-c2ccc(S(=O)(=O)N3CCOCC3)cc2)cs1)C1CCC1
22,398 nM,O=C(Nc1nc(-c2ccc(S(=O)(=O)N3CCCC3)cc2)cs1)C1CCC1
23,2320 nM,CCN(CC)S(=O)(=O)c1ccc(-c2csc(NC(=O)C3CC3)n2)cc1
24,5210 nM,O=C(Nc1nc(-c2ccc(S(=O)(=O)N3CCOCC3)cc2)cs1)C1CC1
